Data as given in ChEMBL document CHEMBL5316290, “Targeted Protein Degradation Induced by HEMTACs Based on HSP90” (J Med Chem, 2023).
Active and inactive are the calls of the source. The rule behind the calls is not given here.

Tests used:
B16-F10 [1] = experiment: Inhibition of cell migration in mouse B16-F10 cells at 0.25 to 1 uM by wound healing assay; type: functional, cell-based; details: dose 0.25-1 µM
B16-F10 [2] = experiment: Anticancer activity against mouse B16-F10 cells implanted in C57BL/6J mouse assessed as reduction in tumor growth at 20 to 40 mg/kg, ip administered once daily for 2 weeks and measured every 2 days by vernier caliper method; type: functional, organism-based; details: dose 20-40 mg/kg
B16-F10 [3] = experiment: Induction of apoptosis in mouse B16-F10 cells assessed as late apoptotic cells at 250 nM incubated for 48 hrs by Annexin V-FITC/PI staining based flow cytometry analysis (reference value: 1.97%); type: functional
[4] = Toxicity in C57BL/6J mouse implanted with mouse B16-F10 cells assessed as morphological changes in lung at 20 mg/kg, ip administered once daily for 2 weeks and measured every 2 days by H and E staining based analysis; type: organism-based; details: in vivo, 336 h
[5] = molecular target: T1, HSP90/Cyclin-dependent kinase 6 (Mus musculus) (UniProt P07901+Q64261+P11499); experiment: HEMTAC activity at HSP90/CDK6 in mouse B16-F10 cells assessed as reduction in CDK6 protein level at 0.5 uM incubated for 24 hrs by global proteomics analysis; type: cell-based
B16-F10 [6] = experiment: Induction of apoptosis in mouse B16-F10 cells assessed as dead cells at 250 nM incubated for 48 hrs by Annexin V-FITC/PI staining based flow cytometry analysis (reference value: 1.75%); type: functional
A549 = experiment: Cytotoxicity against human A549 cells assessed as inhibition of cell growth incubated for 72 hrs by CCK-8 assay; type: functional, cell-based; details: A549, 72 h
[7] = molecular target: T1, HSP90/Cyclin-dependent kinase 6 (Mus musculus); experiment: HEMTAC activity at HSP90/CDK6 in mouse B16-F10 cells assessed as induction of […] degradation by measuring maximal degradation incubated for 24 hrs by Western blot analysis relative to control; type: cell-based
B16-F10 [8] = experiment: Induction of apoptosis in mouse B16-F10 cells assessed as live cells at 125 nM incubated for 48 hrs by Annexin V-FITC/PI staining based flow cytometry analysis (reference value: 92.85 %); type: functional
B16-F10 [9] = experiment: Anticancer activity against mouse B16-F10 cells xenografted in zebra fish embryos assessed as inhibition of cell growth at 1 uM measured at 6 days post fertilization; type: functional, cell-based; details: time 6.0 day
B16-F10 [10] = experiment: Anticancer activity against mouse B16-F10 cells implanted in C57BL/6J mouse assessed as reduction in CDK4/6 positive cells in tumor at 20 mg/kg, ip administered once daily for 2 weeks and measured every 2 days by immunohistochemical analysis; type: functional, organism-based
[11] = molecular target: HSP90/Cyclin-dependent kinase 4 (Mus musculus) (UniProt P30285+P07901+P11499); experiment: HEMTAC activity at HSP90/CDK4 in mouse B16-F10 cells assessed as induction of CDK4 degradation at 0.5 uM pretreated with proteasome inhibitor, MG132 for 2 hrs followed by compound addition and measured after 24 hrs by Western blot analysis; type: cell-based
B16-F10 [12] = experiment: Induction of cell cycle arrest in mouse B16-F10 cells assessed as accumulation of cells at G2 phase at 250 nM incubated for 24 hrs by RNase/PI staining based flow cytometry analysis (reference value: 16.13%); type: functional

In the case of `COc1c(C)cnc(Cn2cc(C#CCCn3cc(CNC(=O)CN4CCN(c5ccc(Nc6ncc7c(C)c(C(C)=O)c(=O)n(C8CCCC8)c7n6)nc5)CC4)nn3)c3c(Cl)nc(N)nc32)c1C`, the inhibition (B16-F10 [1]) is reported as “Active”, the Activity (B16-F10 [2]) is reported as “Active” and the Activity (B16-F10 [3]) is reported as 15.1%. The Activity [4] was “Non-Toxic”, the Activity [5] was “Active” and the Activity (B16-F10 [6]) was 2.55%. For the same molecule, the IC50 (A549) was 860 nM, the Emax [7] was 92% and the Activity (B16-F10 [8]) was 72.27%. For the same molecule, the inhibition (B16-F10 [9]) was “Active”, the Activity (B16-F10 [10]) was “Active” and the Activity [11] was “inactive”. The Activity (B16-F10 [12]) was 16.12%.
